Test results as given in article PMC10937556, “Phenolic phytochemistry, in vitro, in silico, in vivo, and mechanistic anti-inflammatory and antioxidant evaluations of Habenaria digitata” (Frontiers in Pharmacology, 2024).
Structures can show the parent of a compound that is named as a salt.

What was measured:
[1] = ABTS free radical scavenging assay
Description: The ABTS anti-radicals’ analysis was carried out according to [Shah et al. (2015)]. The ABTS solution was prepared by dissolving ABTS salt (192 mg) in distilled H2O, transferred to a flask (50 mL), and volume was adjusted. Thereafter, 1 mL of the preceding solution was added to 17 µL of K₂S₂O₈ (140 mM) and placed in the dark for 24 h s. The experiment’s ultimate ABTS dilution was achieved by mixing 1 mL of the reaction mixture with 50 mL of methanol. The ABTS solution (190 µL) was mixed with the sample solution (10 µL) and added to 96-well plates, which were then incubated at room temperature in dark for 2 h. Following incubation, the measurement of ABTS color intensity was conducted using a microplate reader at 734 nm. Positive control solutions were prepared at values of 1,000–62.5 µM. The percentage of ABTS scavenging was determined by using the following equation: % ABTS scavenging=Control−Sample/control×100.

[2] = H2O2 free radical scavenging activity
Description: The antioxidant potential of isolated compounds was determined using this approach. In a phosphate buffer solution (50 mM, pH 7.40), a solution of H2O2 (2 mM) was produced. The crude extract (0.10 mL) was measured in a test tube and diluted to 0.40 mL using phosphate buffer. Thereafter, H2O2 (0.60 mL) was added and thoroughly mixed. […] 230 nm was used to measure the absorbance of the sample and the standard ([Sadiq et al., 2018]). For all the crude samples, the exact process was followed. According to the procedure, the inhibition percentage and IC50 values were computed.

[3] = DPPH free radical scavenging assay
Description: The DPPH (anti-radicals) investigation was carried out according to our earlier reported protocols. Initially, a methanolic DPPH solution was prepared with a concentration of 0.1%. Subsequently, 100 µL of this solution was mixed with an equal volume of the test samples (100 µL) in 96-well plates, following a 30-min incubation period at 25°C ± 3 °C in the dark. Solutions with concentrations ranging from […] were prepared. Five concentrations of 1,000, 500, 250, 125, and 62.5 µM of the Trolox methanolic solution ([…]) were formed. A color reduction in DPPH was observed after incubation; a microplate reader was used, and absorbance was measured at 540 nm ([Mahnashi et al., 2022a]; [Huneif et al., 2022]). The percentage of scavenging was determined by the formula: Scavenging effect %=control absorbance−sample absorbance/control absorbance×100.

[4] = tested on: carrageenan-induced paw edema; assay: Carrageenan-induced paw edema; assay type: in vivo, mice; conditions: dose 5 mg/kg
Description: Mice of both sexes (25–30 g) were used for in vivo anti-inflammatory activity of test samples on the carrageenan-induced inflammation model ([Munir et al., 2020]). Mice were distributed into five groups, with eight animals in each group, divided at random. Group-I served as the negative control and received DMSO at a dose of 10 mL/kg body weight. Group-II served as a positive control, which received aspirin at a dose of 100 mg/kg body weight. […] Each mouse received 1 percent (w/v) saline solution (0.05 mL) of carrageenan in the sub-planter region after a 30-min interval. The paw edema volume was determined using a plethysmometer (LE 7500-plan lab S.L) at 1–5 h intervals after carrageenan was given. […] The percentages of inhibition of inflammation were calculated using the formula given below: % inhibition=EC−ET/EC×100, where “EC” is the average edema of control and “ET” is the edema of the tested group.

[5] = tested on: prostaglandin E2-induced paw edema; assay: Prostaglandin E2-induced paw edema; conditions: 50 mg/kg
Description: (§1) Employing prostaglandin E2, bradykinin, leukotriene, and histamine induced paw edema assays; the potential anti-inflammatory mechanism of the isolated compound was investigated. […] Sub-planter injections of prostaglandin E2 (0.01 mg/mL) or 10 mg/mL leukotriene or bradykinin (20 mg/mL) or 0.1 mL histamine (1 mg/mL) produced paw edema after 1 h. Each mouse’s paw volume was assessed immediately before and after sub-planter injection of various irritants (inflammatory agents) at 1–5 h.

[6] = tested on: leukotriene-induced paw edema; assay: Leukotriene-induced paw edema; conditions: standard drug, 3rd hour
Description: as §1

[7] = tested on: SOD; assay: In vivo antioxidant: SOD activity in brain, heart, liver; set-up: species or system mice; conditions: p < 0.05, D-galactose aging mice
[8] = tested on: histamine-induced paw edema; assay: Histamine-induced paw edema; conditions: reference drug, 1 h
Description: as §1

Q: With `O=C1O[C@H]([C@@H](O)CO)C(O)=C1O` [AA, ascorbic acid, reference compound] as the compound, how does the “ABTS IC50” value [1] read?
A: 0.12 µg/mL

Q: What about the ABTS % inhibition ([1]; 62.5 µg/mL) of the same compound?
A: 81.12 ± 0.34%

Q: What about the ABTS % inhibition ([1]; 125 µg/mL) of the same compound?
A: 84.47 ± 0.49%

Q: And the ABTS % inhibition ([1]; 250 µg/mL)?
A: 87.75 ± 0.14%

Q: What about the ABTS % inhibition ([1]; 500 µg/mL) of the same compound?
A: 91.59 ± 0.30%

Q: What about the ABTS % inhibition ([1]; 1,000 µg/mL) of the same compound?
A: 95.85 ± 0.18%

Q: And the “H2O2 IC50” value [2]?
A: 02 µg/mL

Q: What about the H2O2 % inhibition ([2]; 62.5 µg/mL) of the same compound?
A: 71.73 ± 0.66%

Q: What about the H2O2 % inhibition ([2]; 125 µg/mL) of the same compound?
A: 73.70 ± 0.35%

Q: What about the H2O2 % inhibition ([2]; 250 µg/mL) of the same compound?
A: 78.07 ± 0.62%

Q: And the H2O2 % inhibition ([2]; 500 µg/mL)?
A: 83.01 ± 0.42%

Q: And the H2O2 % inhibition ([2]; 1,000 µg/mL)?
A: 87.50 ± 2.26%

Q: And the “DPPH IC50” value [3]?
A: 0.47 µg/mL

Q: What about the DPPH % inhibition ([3]; 62.5 µg/mL) of the same compound?
A: 81.35 ± 0.18%

Q: And the DPPH % inhibition ([3]; 125 µg/mL)?
A: 84.20 ± 0.15%

Q: And the DPPH % inhibition ([3]; 250 µg/mL)?
A: 88.42 ± 0.11%

Q: What about the DPPH % inhibition ([3]; 500 µg/mL) of the same compound?
A: 93.62 ± 0.17%

Q: What about the DPPH % inhibition ([3]; 1,000 µg/mL) of the same compound?
A: 97.53 ± 0.20%

Q: Which results are given for `CC(=O)Oc1ccccc1C(=O)O` [Aspirin, reference compound]?
A: Percentage inhibition of paw edema ([4]; 1 h): 47.50 ± 1.10 %; Percentage inhibition of paw edema ([4]; 2 h): 53.61 ± 1.45 %; Percentage inhibition of paw edema ([4]; 3 h): 54.24 ± 1.34 %; Percentage inhibition of paw edema ([4]; 4 h): 57.90 ± 1.93 %; Percentage inhibition of paw edema ([4]; 5 h): 58.62 ± 1.53 %; Percentage inhibition of paw edema ([4]; 5 h, listed as aspirin): 58.62%

Q: With `Cc1ccc(-c2cc(C(F)(F)F)nn2-c2ccc(S(N)(=O)=O)cc2)cc1` [Celecoxib, reference compound] as the compound, how does the “Effect on increased PGE2 level” value [5] read?
A: significant reduction

Q: For `CC(C)(O)c1ccccc1CC[C@@H](SCC1(CC(=O)O)CC1)c1cccc(/C=C/c2ccc3ccc(Cl)cc3n2)c1` [Montelukast, reference compound], which “Percentage inhibition of leukotriene-induced paw edema” value [6] is on record?
A: 67.02 ± 1.74%

Q: Which “SOD activity compared to the model group” value [7] does the source give for `Cc1c(C)c2c(c(C)c1O)CCC(C)(C(=O)O)O2` (stereo not shown) [Trolox, reference compound] here?
A: higher

Q: Which “Percentage inhibition of histamine-induced paw edema” value [8] does the source give for `CN(C)CCC(c1ccc(Cl)cc1)c1ccccn1` (stereo not shown) [chlorpheniramine maleate, reference compound] here?
A: 71.62 ± 1.16%
